Source: ChEMBL document CHEMBL4402557, “Nidufexor (LMB763), a Novel FXR Modulator for the Treatment of Nonalcoholic Steatohepatitis” (J Med Chem, 2020)

Experiments:
[1] = Clearance in mouse at 3 mg/kg, iv; format: ADME, organism-based; conditions: in vivo
[2] = AUC in Wistar rat at 300 mg/kg, po; format: ADME, organism-based; conditions: in vivo
[3] = AUC in Wistar rat at 10 mg/kg, po; format: ADME, organism-based; conditions: in vivo
[4] = target: T1, Peroxisome proliferator-activated receptor gamma (Homo sapiens, UniProt P37231); test: Agonist activity at PPARgamma (unknown origin) incubated for 2 hrs by TR-FRET assay
T1 sequence (P37231 whole entry): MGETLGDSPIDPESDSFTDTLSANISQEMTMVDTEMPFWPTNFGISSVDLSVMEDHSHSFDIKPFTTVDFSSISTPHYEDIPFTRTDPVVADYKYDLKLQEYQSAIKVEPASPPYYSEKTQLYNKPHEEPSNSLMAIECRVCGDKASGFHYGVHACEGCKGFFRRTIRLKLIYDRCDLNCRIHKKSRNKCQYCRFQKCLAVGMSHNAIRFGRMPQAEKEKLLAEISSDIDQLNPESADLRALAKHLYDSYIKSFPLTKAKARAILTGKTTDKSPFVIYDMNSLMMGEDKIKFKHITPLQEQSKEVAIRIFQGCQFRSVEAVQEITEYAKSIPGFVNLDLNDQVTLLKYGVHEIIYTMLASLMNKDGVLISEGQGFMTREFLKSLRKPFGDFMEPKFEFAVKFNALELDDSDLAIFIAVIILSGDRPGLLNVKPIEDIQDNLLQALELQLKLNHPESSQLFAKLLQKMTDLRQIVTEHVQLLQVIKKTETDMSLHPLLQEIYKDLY

[5] = Oral bioavailability in mouse at 10 mg/kg; format: ADME, organism-based; conditions: in vivo
Rattus norvegicus [6] = test: In-vivo agonist activity at FXR in Han Wistar rat assessed as upregulation of FGF15 protein level in serum at 1.5 mg/kg administered via oral gavage once daily for 14 days measured 10 hrs post last dose relative to control; format: functional
[7] = Half life in dog at 0.5 mg/kg, iv; format: ADME, organism-based, Canis lupus familiaris; conditions: in vivo
[8] = target: T2, Oxysterols receptor LXR-alpha (Homo sapiens, UniProt Q13133); test: Agonist activity at GAL4-fused LXR LBD (unknown origin) expressed in HEK293T cells incubated for 24 by BrightGlo reagent based assay; format: cell-based
T2 sequence (Q13133 whole entry): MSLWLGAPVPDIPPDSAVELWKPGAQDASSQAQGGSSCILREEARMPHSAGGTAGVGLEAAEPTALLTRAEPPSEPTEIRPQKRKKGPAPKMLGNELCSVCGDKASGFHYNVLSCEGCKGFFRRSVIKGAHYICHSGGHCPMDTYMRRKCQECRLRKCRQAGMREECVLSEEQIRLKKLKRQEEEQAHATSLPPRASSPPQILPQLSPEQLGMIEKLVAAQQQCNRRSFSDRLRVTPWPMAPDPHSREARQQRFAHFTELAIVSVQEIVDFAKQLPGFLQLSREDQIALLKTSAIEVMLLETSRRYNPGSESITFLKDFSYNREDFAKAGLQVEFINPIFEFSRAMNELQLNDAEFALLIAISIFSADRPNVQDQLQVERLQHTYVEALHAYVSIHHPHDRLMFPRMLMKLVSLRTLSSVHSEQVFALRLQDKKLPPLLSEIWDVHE

[9] = Half life in Wistar rat at 3 mg/kg, po; format: ADME, organism-based; conditions: in vivo
Rattus norvegicus [10] = test: In-vivo agonist activity at FXR in Han Wistar rat assessed as upregulation of FGF15 mRNA level in ileum at 1.5 mg/kg administered via oral gavage once daily for 14 days measured 10 hrs post last dose by qRT-PCR analysis relative to control; format: functional
[11] = target: T3, Bile acid receptor (Rattus norvegicus) (UniProt Q62735); test: Agonist activity at FXR in rat primary hepatocytes assessed as increase in SHP mRNA level incubated for 24 hrs by qRT-PCR analysis relative to tropifexor; format: cell-based
T3 sequence (whole entry): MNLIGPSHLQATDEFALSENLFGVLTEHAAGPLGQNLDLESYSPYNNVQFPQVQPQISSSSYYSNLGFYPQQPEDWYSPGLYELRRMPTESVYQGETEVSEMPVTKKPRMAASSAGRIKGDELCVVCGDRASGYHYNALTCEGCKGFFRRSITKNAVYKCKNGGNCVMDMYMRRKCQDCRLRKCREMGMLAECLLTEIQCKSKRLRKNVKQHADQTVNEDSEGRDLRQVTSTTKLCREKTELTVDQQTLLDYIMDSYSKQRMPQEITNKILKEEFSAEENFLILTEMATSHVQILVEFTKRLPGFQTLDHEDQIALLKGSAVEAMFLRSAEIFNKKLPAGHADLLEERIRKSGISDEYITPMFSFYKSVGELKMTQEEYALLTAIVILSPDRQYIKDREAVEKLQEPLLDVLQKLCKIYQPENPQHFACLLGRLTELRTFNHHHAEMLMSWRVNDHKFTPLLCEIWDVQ

Progesterone receptor = target: T4, Progesterone receptor (Homo sapiens, UniProt P06401); test: Agonist activity at Progesterone receptor (unknown origin) incubated for 2 hrs by TR-FRET assay
T4 sequence (P06401 whole entry): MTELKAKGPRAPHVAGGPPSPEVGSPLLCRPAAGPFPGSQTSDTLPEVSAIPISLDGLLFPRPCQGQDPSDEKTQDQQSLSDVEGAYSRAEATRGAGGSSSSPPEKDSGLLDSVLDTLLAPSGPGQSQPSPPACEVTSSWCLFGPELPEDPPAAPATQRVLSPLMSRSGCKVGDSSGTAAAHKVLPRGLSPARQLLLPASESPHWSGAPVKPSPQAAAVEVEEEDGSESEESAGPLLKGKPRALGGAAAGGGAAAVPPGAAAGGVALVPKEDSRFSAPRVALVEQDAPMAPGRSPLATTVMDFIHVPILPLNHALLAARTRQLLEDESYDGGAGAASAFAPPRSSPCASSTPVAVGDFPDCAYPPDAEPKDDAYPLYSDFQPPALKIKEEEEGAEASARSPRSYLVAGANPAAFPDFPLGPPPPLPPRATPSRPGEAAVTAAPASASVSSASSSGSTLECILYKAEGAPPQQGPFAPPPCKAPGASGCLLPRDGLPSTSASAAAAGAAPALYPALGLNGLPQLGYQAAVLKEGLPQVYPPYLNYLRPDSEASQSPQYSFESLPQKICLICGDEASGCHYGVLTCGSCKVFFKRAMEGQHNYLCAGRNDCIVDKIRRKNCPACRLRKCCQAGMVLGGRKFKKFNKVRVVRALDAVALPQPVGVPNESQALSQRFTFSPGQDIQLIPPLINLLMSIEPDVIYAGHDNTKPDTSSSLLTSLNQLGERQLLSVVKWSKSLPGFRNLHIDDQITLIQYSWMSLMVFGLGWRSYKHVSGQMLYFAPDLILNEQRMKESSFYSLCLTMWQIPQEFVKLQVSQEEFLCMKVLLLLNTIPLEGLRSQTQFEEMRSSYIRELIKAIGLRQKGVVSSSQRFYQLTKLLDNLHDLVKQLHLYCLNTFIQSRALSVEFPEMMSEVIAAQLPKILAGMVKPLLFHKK

[12] = Cmax in Wistar rat at 100 mg/kg, po; format: ADME, organism-based; design: dose 100 mg/kg, route oral; conditions: in vivo

clearance [1]: 9.8 mL/min/kg | AUC [2]: 1040 µM·h | AUC [3]: 25.4 µM·h | EC50 [4]: > 30 µM | bioavailability [5]: 115% | half-life [7]: 6.8 h | EC50 [8]: > 10 µM | half-life [9]: 3.9 h | Activity [11]: 65% | EC50 (Progesterone receptor): > 30 µM | Cmax [12]: 80.9 µM
Compound: Cn1nc(C(=O)N(Cc2ccccc2)Cc2ccc(C(=O)O)cc2)c2c1-c1cc(Cl)ccc1OC2 [NIDUFEXOR]
fold change (FC) (Rattus norvegicus [6]): 3.5 | fold change (FC) (Rattus norvegicus [10]): 30
